Data reported in PubChem BioAssay AID1963835 (Molecular Pharmacology Branch, DTP, NCI, 2024).
Several values for one entry are separate records, joined by “and”; a condition that tells them apart may be missing. Equal entries are not always repeated.

System: 699152-130-R-J1-PDC complex spheroid viability
Experiment: Anticancer human tumor 699152-130-R-J1-PDC patient-derived pancreatic carcinoma cell line growth inhibition [POLQ]
Conditions: for viability, T/C: stronger effect = lower value
Protocol: Multicellular complex tumor spheroid response to Polymerase (POL) inhibitors (novobiocin, ART-558, RP6685) in combination with a variety of drugs and investigational agents in selected tumor cell lines
The POL inhibitors (novobiocin, ART-558, and RP6685) were evaluated both individually and in combination with standard of care and investigational anticancer small molecules within a complex spheroid model of solid tumors. . Complex spheroids include a stromal component modeled by human endothelial cells (HUVEC) and fibroblasts modeled by human mesenchymal stem cells (MSCs). The concentration ranges selected for each drug and investigational agent were based upon clinically achievable concentrations if the clinical Cmax of the agent was known.
Compounds. The drugs and investigational agents: novobiocin (NSC847541), ART-558 (NSC835418), RP-6685 (NSC848927), peposertib (NSC802822), ceralasertib (NSC780249), elimusertib (NSC800525), camonsertib (NSC841442), AZD-1390 (NSC803789), olaparib (NSC753686), talazoparib (NSC767125), rucaparib (NSC756644), sotorasib (NSC818433), MRTX-1133 (NSC836407), SN-38 (NSC673596), topotecan (NSC609699), epotoside (NSC141540), doxorubicin (NSC123127), gemcitabine (NSC613327), 5-fluorouracil (NSC19893), paclitaxel (NSC125973), vemurafenib (NSC761431), MSA-2 (NSC828583), SN-011 (NSC837082), adavosertib (NSC754352), prexasertib (NSC758257), carboplatin (NSC241240) and oxaliplatin (NSC266046), were obtained from the National Cancer Institute (NCI) Developmental Therapeutics Program Chemical Repository (21). The FDA-approved anticancer drug set is available from the Developmental Therapeutics Program at https://dtp.cancer.gov/organization/dscb/obtaining/. […] The stock solutions were prepared in dimethyl sulfoxide (DMSO, Sigma-Aldrich, St. Louis, MO, cat. D2650), except for the platinum compounds which were prepared in saline (Quality Biological, Gaithersburg, MD, cat. 114-055-101), at 800-fold the tested concentration and stored at -70 degrees C prior to their use. All drugs and investigational agents were tested over a range starting from a high concentration at or near the clinical Cmax and decreasing in half-log increments. If the clinical Cmax for an agent had not been determined, the highest concentration tested was 10 microM, except for SN-38, which was tested at a high concentration of 1 microM.
Cell Culture. All cells were maintained in an incubator at 37 degrees C and 5% CO2 with 95% humidity. The PDC lines were cultured according to standard operating procedures established by the NCI PDMR (https://pdmr.cancer.gov). Table 3 of the manuscript, lists the cell lines along with the number of the three cell types plated to form the mct-spheroids and media for tumor cell growth. After thawing, all PDC lines, except 997537-175-T-J1-PDC and 415267-285-R-J2-PDC, were cultured in Matrigel-coated flasks prepared with a working solution of 1X Ham's F-12 nutrient mix, without supplementation (Thermo Fisher Scientific, cat. 11765054), 100 U/mL penicillin-streptomycin (Thermo Fisher Scientific, cat. 15140122), and 2.5% Matrigel (Corning Inc., Corning, NY, cat. 354248) for the first three passages. The two PDC lines 997537-175-T-J1-PDC and 415267-285-R-J2-PDC were cultured on uncoated flasks. The 857933-349-R-J2-PDC line was cultured in 6C/Colon 1B media containing advanced DMEM/F-12 (Thermo Fisher Scientific, cat. 12634028), 10 mM HEPES (Thermo Fisher Scientific, cat. 15630080), 1X GlutaMAX supplement (Thermo Fisher Scientific, cat. 35050061), 0.1 mg/mL primocin (InvivoGen, San Diego, CA, cat. ant-pm-2), 10% defined fetal bovine serum, heat inactivated (HyClone Laboratories Inc., Logan, UT, cat. SH30070.03HI), 50% L-WRN conditioned media (ATCC, cat. CRL-3276), 1.25 mM N-Acetyl-L-cysteine (Sigma-Aldrich, cat. A9165), 10 mM nicotinamide (Sigma-Aldrich, cat. N0636), 1X B-27 supplement (Thermo Fisher Scientific, cat. 17504044), 1X N-2 supplement (Thermo Fisher Scientific, cat. […]
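Note: spheroids exposed to agents for 7 days before viability reading.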
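Throughout, for viability, T/C: percent of DMSO vehicle control viability so 100% = vehicle and 0% = no viable signal.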

Compound: CC1COCCN1c1cc(C2(S(C)(=N)=O)CC2)nc(-c2ccnc3[nH]ccc23)n1 (stereo not drawn)
- viability, T/C (compound 0.0316 µM): 105% and 93.7% and 91.8%
- viability, T/C (compound 0.1 µM): 102% and 97.1% and 94.4%
- viability, T/C (compound 0.316 µM): 90.2% and 91.5% and 105%
- viability, T/C (compound 1 µM): 88.6% and 97.4% and 88.8%
- viability, T/C (compound 3.16 µM): 76% and 82.6% and 74%
- viability, T/C (compound 10 µM): 73.1% and 68.3% and 65.9%
- IC50 (curve of compound): > 10 µM

Compound: COc1cc2cc(C(=O)CCC(=O)O)sc2cc1OC
- viability, T/C (compound 0.0316 µM): 101% (2×) and 90.4%
- viability, T/C (compound 0.1 µM): 98.7% and 97.3% and 103%
- viability, T/C (compound 0.316 µM): 94.8% and 103% and 101%
- viability, T/C (compound 1 µM): 102% and 96.4% and 105%
- viability, T/C (compound 3.16 µM): 111% (2×) and 91.5%
- viability, T/C (compound 10 µM): 99.7% and 93.3% and 99.9%
- IC50 (curve of compound): > 10 µM

Compound: C=CC(=O)N1CCN(c2nc(=O)n(-c3c(C)ccnc3C(C)C)c3nc(-c4c(O)cccc4F)c(F)cc23)C(C)C1 (stereo not drawn) + Cc1cccc(N(C)C(=O)C2C(O)CCN2c2nc(C)cc(C(F)(F)F)c2C#N)c1
- IC50 (curve of first compound, second compound 0.0316 µM): > 10 µM
- IC50 (curve of first compound, second compound 0.1 µM): > 10 µM
- IC50 (curve of first compound, second compound 0.316 µM): > 10 µM
- IC50 (curve of first compound, second compound 1 µM): > 10 µM
- IC50 (curve of first compound, second compound 3.16 µM): > 10 µM
- IC50 (curve of first compound, second compound 10 µM): > 10 µM
- viability, T/C (second compound 0.0316 µM, first compound 0.0316 µM): 92.9%
- viability, T/C (second compound 0.0316 µM, first compound 0.1 µM): 99.6%
- viability, T/C (second compound 0.0316 µM, first compound 0.316 µM): 102%
- viability, T/C (second compound 0.0316 µM, first compound 1 µM): 110%
- viability, T/C (second compound 0.0316 µM, first compound 3.16 µM): 113%
- viability, T/C (second compound 0.0316 µM, first compound 10 µM): 115%
- viability, T/C (second compound 0.1 µM, first compound 0.0316 µM): 102%
- viability, T/C (second compound 0.1 µM, first compound 0.1 µM): 89.4%
- viability, T/C (second compound 0.1 µM, first compound 0.316 µM): 113%
- viability, T/C (second compound 0.1 µM, first compound 1 µM): 93.8%
- viability, T/C (second compound 0.1 µM, first compound 3.16 µM): 119%
- viability, T/C (second compound 0.1 µM, first compound 10 µM): 105%
- viability, T/C (second compound 0.316 µM, first compound 0.0316 µM): 99.9%
- viability, T/C (second compound 0.316 µM, first compound 0.1 µM): 103%
- viability, T/C (second compound 0.316 µM, first compound 0.316 µM): 103%
- viability, T/C (second compound 0.316 µM, first compound 1 µM): 103%
- viability, T/C (second compound 0.316 µM, first compound 3.16 µM): 114%
- viability, T/C (second compound 0.316 µM, first compound 10 µM): 110%
- viability, T/C (second compound 1 µM, first compound 0.0316 µM): 108%
- viability, T/C (second compound 1 µM, first compound 0.1 µM): 89.7%
- viability, T/C (second compound 1 µM, first compound 0.316 µM): 102%
- viability, T/C (second compound 1 µM, first compound 1 µM): 113%
- viability, T/C (second compound 1 µM, first compound 3.16 µM): 108%
- viability, T/C (second compound 1 µM, first compound 10 µM): 109%
- viability, T/C (second compound 3.16 µM, first compound 0.0316 µM): 92.2%
- viability, T/C (second compound 3.16 µM, first compound 0.1 µM): 91.3%
- viability, T/C (second compound 3.16 µM, first compound 0.316 µM): 98.8%
- viability, T/C (second compound 3.16 µM, first compound 1 µM): 105%
- viability, T/C (second compound 3.16 µM, first compound 3.16 µM): 114%
- viability, T/C (second compound 3.16 µM, first compound 10 µM): 104%
- viability, T/C (second compound 10 µM, first compound 0.0316 µM): 103%
- viability, T/C (second compound 10 µM, first compound 0.1 µM): 104%
- viability, T/C (second compound 10 µM, first compound 0.316 µM): 108%
- viability, T/C (second compound 10 µM, first compound 1 µM): 109%
- viability, T/C (second compound 10 µM, first compound 3.16 µM): 120%
- viability, T/C (second compound 10 µM, first compound 10 µM): 119%

Compound: Nc1ccn(C2OC(CO)C(O)C2(F)F)c(=O)n1 (stereo not drawn)
- viability, T/C (compound 0.0316 µM): 68.9% and 75.2% and 66%
- viability, T/C (compound 0.1 µM): 63.8% and 57.4% and 54.5%
- viability, T/C (compound 0.316 µM): 54.8% and 51.7% and 52.1%
- viability, T/C (compound 1 µM): 49.3% and 52.1% and 41.2%
- viability, T/C (compound 3.16 µM): 44.3% and 51.1% and 40.1%
- viability, T/C (compound 10 µM): 39.6% and 44.7% and 36%
- IC50 (curve of compound): 0.917 µM and 0.786 µM and 0.277 µM
